Assay results reported in patent US10556920B2, “Phosphorus-containing heterocycles and a method for making and using” (University of Oregon, priority 2015, dated 2020).

How the values were obtained:
Format in all cases: physicochemical
[1] = Dimerization in solution
From the text: This corresponded to an energy of 1.5 kcal/mol for each H-bond, which was quite high compared to cis-amides such as pyrrolidone or caprolactam, who experience dimerization constants from 1-5 M^−1 in CHCl3. […] As a result, this dimer deviated from the trends previously reported, where each attractive interaction gave −1.88 kcal/mol of energy to ΔG, and each repulsive secondary interaction gave +0.74 kcal/mol. Following the same schema, the two repulsive secondary interactions in the present dimer yielded only +0.76 kcal/mol of destabilization, about half of what was expected.

[2] = Fluorescence excitation/emission
From the text: ^1H and ^13C NMR spectra were obtained on a Varian 300 MHz spectrometer (^1H: […], ^13C: […]), Inova 500 MHz spectrometer (^1H: 500.10 MHz, ^13C: 125.75 MHz) or Varian 600 MHz spectrometer (^1H: 599.98 MHz, ^13C: 150.87 MHz). Chemical shifts (6) are expressed in ppm using non-deuterated solvent present in the bulk deuterated solvent (CDCl3: ^1H 7.26 ppm, ^13C 77.16 ppm; (CD3)2SO: ^1H 2.5 ppm, ^13C 39.52 ppm). Solvents and reagents were used as purchased from suppliers, unless anhydrous conditions were employed, in which solvents were freshly distilled from sodium/benzophenone under N2 atmosphere (THF) or as purchased in sealed, DriSolv containers (pyridine). Triphenylphosphite was freshly distilled under vacuum before use. Mass spectra were acquired with a Waters LCT Premier ESI-MS in positive mode using acetone as a solvent. UV-Vis spectra were acquired with a Hewlett-Packard 8453 UV-Visible spectrophotometer equipped with a 250 nm cutoff filter. Fluorescence data was acquired with a Horiba Jobin-Yvon FluoroMax-4 fluorescence spectrophotometer. HPLC performed using a JAI Recycling Preparative HPLC (Model LC-9101) with a JAIGEL-1H preparative column.
The compounds gave fluorescence emissions similar to those of carbostyril. (3-Ph-carbostyril ex: 345 nm, em: 410 nm; II-3 ex: 354 nm, em: 427 nm).
The only scaffold which responded to the addition of acid was one containing a 2-pyridyl substituent, which directly corresponded to protonation of the pyridine. The N—H proton of the NH—P(OPh)=O functionality is fairly acidic, and easily removed via treatment with organic bases such as DBU. […] The fluorophore II-7 gave substitution patterns that were followed for both red-shift and quantum yield optimization of carbostyril fluorophores. Following the guidelines within the scaffold, with placement of electron donating groups in the 6- and 7-positions, and an electron-withdrawing group in the 3-position, yielded a fluorophore with an emission of 505 nm and a quantum yield of 45% in CHCl3.

[3] = Stability of phosphonimidate form toward hydrolysis/heat; conditions: 100° C. reaction conditions
From the text: Disclosed herein is a synthetic approach to assemble the 2-λ^5-phosphaquinoline in one step from easily attainable starting materials. By treatment of a 2-ethynyl aniline (for example, accessible from Sonogashira cross-coupling with commercially available 2-iodoanilines) with triphenylphosphite, the disclosed compounds were synthesized in good to modest yields (Table 1). Typically, upon isolation and purification via hot recrystallization in ambient atmosphere, the phosphaquinoline partially hydrolyzed, yielding the phosphaquinolinone form and releasing phenol. However, the phosphonimidate form (A) appeared to be stable at room temperature. This reaction was tolerant to a variety of electron-rich and electron-poor arenes, as well as alkyl functionality attached at the ethynyl.
Except for compounds with a 2-pyridyl substituent, the phosphonimidate compounds tended to hydrolyze when heated in ambient atmosphere to give the phosphonamidate. If the reaction was performed rigorously water-free, and worked up with minimal exposure to ambient atmosphere, the phosphonimidate forms (I) can be isolated for all of the derivatives. […] This and stability of the phosphonimidate toward hydrolysis at room temperature lent credence to increased stability from delocalization within the heterocycle.

[4] = TEA added, in CHCl3 (deprotonated N-H)

| SMILES | fluorescence emission (em) ([2]; CHCl3, neutral form) | fluorescence emission (em) ([2]; MeCN) | fluorescence emission (em) ([2]; solvent not stated) | fluorescence excitation (ex) ([2]; solvent not stated) | also measured |
| --- | --- | --- | --- | --- | --- |
| N#Cc1ccc(C2=Cc3ccccc3NP2(=O)Oc2ccccc2)cc1 (centres unmarked) [II-1, 4-(2-oxido-2-phenoxy-1H-benzo[e][1,2]azaphosphinin-3-yl)benzonitrile] | 430 nm | 450 nm |  |  | energy for each H-bond ([1]; from dimerization constant in CDCl3): 1.5 kcal/mol; dimerization constant ([1]; in CDCl3): 133 ± 15 M⁻¹; fluorescence excitation (ex) ([2]; CHCl3, neutral form): 345 nm; fluorescence emission (em) [2, 4]: 542 nm; fluorescence excitation (ex) [2, 4]: 360 nm; Stokes shift ([2]; upon treatment with base (TEA) in CHCl3): 180 nm |
| O=P1(Oc2ccccc2)Nc2ccccc2C=C1c1ccccc1 (centres unmarked) [II-3, 2-phenoxy-3-phenyl-1H-benzo[e][1,2]azaphosphinine 2-oxide] |  |  | 427 nm | 354 nm |  |
| COc1ccc(C2=Cc3ccccc3NP2(=O)Oc2ccccc2)cc1 (centres unmarked) [II-4, 3-(4-methoxyphenyl)-2-phenoxy-1H-benzo[e][1,2]azaphosphinine 2-oxide] | 411 nm | 411 nm |  |  |  |
| O=c1[nH]c2ccccc2cc1-c1ccccc1 [3-Ph-carbostyril, reference compound] |  |  | 410 nm | 345 nm |  |
| CCOC(=O)c1ccc(C2=Cc3ccccc3N=P2(Oc2ccccc2)Oc2ccccc2)cc1 [I-2, ethyl 4-(2,2-diphenoxy-2-λ^5-benzo[e][1,2]azaphosphinin-3-yl)benzoate] |  |  |  |  | stability under reaction conditions [3]: quite stable |
| N#Cc1ccc(C2=Cc3cc4c(cc3NP2(=O)Oc2ccccc2)OCO4)cc1 (centres unmarked) [II-7, 4-(2-oxido-2-phenoxy-1H-[1,3]dioxolo[4′,5′:4,5]benzo[1,2-e][1,2]azaphosphinin-3-yl)benzonitrile] | 505 nm |  |  |  | quantum yield ([2]; in CHCl3): 45% |
